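How tested: cells in 96-well plates exposed to compound for 48 hours at five concentrations. Here, GI50 denotes the concentration required for 50% inhibition of growth. TGI: concentration producing complete growth inhibition.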
Tests used:
Assay in all cases: growth of human tumour cells (NCI), 48 h
HL-60(TB) leukemia = tested on: HL-60(TB) leukemia
A549 NSCLC = tested on: A549 NSCLC
HT29 colon = tested on: HT29 colon
UACC-257 melanoma = tested on: UACC-257 melanoma
SW-620 colon = tested on: SW-620 colon
NCI-H460 lung = tested on: NCI-H460 lung
NCI-H23 lung = tested on: NCI-H23 lung
MDA-MB-231 breast = tested on: MDA-MB-231 breast
DU-145 prostate = tested on: DU-145 prostate
TK-10 renal = tested on: TK-10 renal
T-47D breast = tested on: T-47D breast
OVCAR-5 ovarian = tested on: OVCAR-5 ovarian
OVCAR-3 ovarian = tested on: OVCAR-3 ovarian
SK-MEL-28 melanoma = tested on: SK-MEL-28 melanoma
SF-268 CNS = tested on: SF-268 CNS
SNB-19 CNS = tested on: SNB-19 CNS
HCT-15 colon = tested on: HCT-15 colon
MDA-MB-435 = tested on: MDA-MB-435
SR leukemia = tested on: SR leukemia
NCI-H226 lung = tested on: NCI-H226 lung
HOP-92 NSCLC = tested on: HOP-92 NSCLC
A498 renal = tested on: A498 renal
UACC-62 melanoma = tested on: UACC-62 melanoma
BT-549 breast = tested on: BT-549 breast
MALME-3M melanoma = tested on: MALME-3M melanoma
CCRF-CEM leukemia = tested on: CCRF-CEM leukemia
SF-539 CNS = tested on: SF-539 CNS
RPMI-8226 leukemia = tested on: RPMI-8226 leukemia
K-562 leukemia = tested on: K-562 leukemia

Compound: O=C1C=C(SCCO)C(=O)c2ccccc21
- GI50 (HL-60(TB) leukemia): 451 nM
- TGI (HL-60(TB) leukemia): 2460 nM
- GI50 (A549 NSCLC): 2240 nM
- TGI (A549 NSCLC): 4590 nM
- GI50 (HT29 colon): 2580 nM
- TGI (HT29 colon): 6730 nM
- GI50 (UACC-257 melanoma): 1960 nM
- TGI (UACC-257 melanoma): 3410 nM
- GI50 (SW-620 colon): 1850 nM
- TGI (SW-620 colon): 3730 nM
- GI50 (NCI-H460 lung): 1840 nM
- TGI (NCI-H460 lung): 3590 nM
- GI50 (NCI-H23 lung): 1490 nM
- TGI (NCI-H23 lung): 3420 nM
- GI50 (MDA-MB-231 breast): 1420 nM
- TGI (MDA-MB-231 breast): 3890 nM
- GI50 (DU-145 prostate): 1710 nM
- TGI (DU-145 prostate): 3090 nM
- GI50 (TK-10 renal): 2750 nM
- TGI (TK-10 renal): 6200 nM
- GI50 (T-47D breast): 1470 nM
- TGI (T-47D breast): 4100 nM
- GI50 (OVCAR-5 ovarian): 4920 nM
- TGI (OVCAR-5 ovarian): 21400 nM
- GI50 (OVCAR-3 ovarian): 1370 nM
- TGI (OVCAR-3 ovarian): 2680 nM
- GI50 (SK-MEL-28 melanoma): 2010 nM
- TGI (SK-MEL-28 melanoma): 4020 nM
- GI50 (SF-268 CNS): 1920 nM
- TGI (SF-268 CNS): 5070 nM
- GI50 (SNB-19 CNS): 1900 nM
- TGI (SNB-19 CNS): 4180 nM
- GI50 (HCT-15 colon): 1910 nM
- TGI (HCT-15 colon): 3900 nM
- GI50 (MDA-MB-435): 1340 nM
- TGI (MDA-MB-435): 2650 nM
- GI50 (SR leukemia): 2170 nM
- TGI (SR leukemia): 5750 nM
- GI50 (NCI-H226 lung): 16300 nM
- TGI (NCI-H226 lung): 36600 nM
- GI50 (HOP-92 NSCLC): 1300 nM
- TGI (HOP-92 NSCLC): 3010 nM
- GI50 (A498 renal): 13900 nM
- TGI (A498 renal): 27000 nM
- GI50 (UACC-62 melanoma): 1600 nM
- TGI (UACC-62 melanoma): 3040 nM
- GI50 (BT-549 breast): 1550 nM
- TGI (BT-549 breast): 2980 nM
- GI50 (MALME-3M melanoma): 1810 nM
- TGI (MALME-3M melanoma): 3290 nM
- GI50 (CCRF-CEM leukemia): 1140 nM
- TGI (CCRF-CEM leukemia): 4790 nM
- GI50 (SF-539 CNS): 1650 nM
- TGI (SF-539 CNS): 3030 nM
- GI50 (RPMI-8226 leukemia): 2090 nM
- TGI (RPMI-8226 leukemia): 5000 nM
- GI50 (K-562 leukemia): 1280 nM

From PubChem BioAssay (NCI)
